Data taken from publication PMC6832134, “Discovery of Novel Integrase Inhibitors Acting outside the Active Site Through High-Throughput Screening” (Molecules, 2019).
Where two headings read alike, the source gives them in different places.

What was measured:
[1] = molecular target: T1, HIV-1 IN (WT) (Human immunodeficiency virus type 1 group M subtype B, UniProt P12497); assay: Gel-based IN strand transfer assay, WT enzyme; format: biochemical
T1 construct: 250 nM of recombinant HIV-1 integrase; made in house; host or cells: E. coli RosettaII
Description: (§1) IN reactions were carried out by adding drugs or an equivalent volume of 100% DMSO (dimethyl sulfoxide, used as the drug solvent) to a mixture of 20 nM duplex DNA (21T/21B) and 400 nM IN in 50 mM MOPS pH 7.2, 7.5 mM MgCl2, and 14 mM 2-mercaptoethanol. Reactions were performed at 37 °C for 2 h and quenched by addition of an equal volume of loading buffer [formamide containing 1% SDS (sodium dodecyl sulfate), 0.25% bromophenol blue, and xylene cyanol]. Reaction products were separated in 16% polyacrylamide denaturing sequencing gels. Dried gels were visualized using a Typhoon 8600 (GE Healthcare, Piscataway, NJ, USA). Densitometric analyses were performed using the ImageQuant 5.1 software from GE Healthcare. Data analyses (linear regression, IC50 determination, and standard deviation) were performed using Prism 6.05 software from GraphPad.

[2] = molecular target: T2, HIV-1 IN mutant Y143R (Human immunodeficiency virus type 1 group M subtype B, UniProt P12497, Y1290R); assay: Gel-based IN strand transfer assay, Y143R mutant; format: biochemical
T2 construct: RAL-resistant HIV-1 mutant integrases; made in house; host or cells: E. coli RosettaII
Description: as §1

[3] = molecular target: T3, IN-DNA binding (Human immunodeficiency virus type 1 group M subtype B, UniProt P12497); assay: IN-DNA binding by fluorescence anisotropy; set-up: species or system HIV-1
T3 construct: 250 nM of recombinant HIV-1 integrase; made in house; host or cells: E. coli RosettaII
Excerpt: Although the CCD alone harbors all of the structural determinants of the active site to support the catalytic activity, the NTD and CTD have been implicated in both the quaternary architecture of the enzyme and DNA binding. Because outer domains (NTD and/or CTD) appeared important in the inhibition of IN by NSC34931, we wondered if stilbene disulfonic acid derivatives might compete with DNA binding. To test whether NSC34931 competed with substrate binding, we developed a plate-based assay with a fluorescent DNA substrate.
In addition, controls with DMSO (0 µM) or without IN (DNA only) were included. Data represent the mean of three independent experiments.
DNA binding was measured using a plate-based assay as previously described. […] Compounds or DMSO were incubated at room temperature for 5 min in the IN-activity buffer, in the absence or the presence of IN (400 nM). After addition of the DNA (10 nM), fluorescence anisotropy was measured every 30 s for 30 min using an Envision plate reader (Perkin Elmer, Waltham, MA, USA).

[4] = test system: HIV-1; set-up: method as in http://dtp.nci.nih.gov, [7]; details: ref http://dtp.nci.nih.gov, [7]; cited from earlier work

With `O=S(=O)(O)c1cc(/N=N/c2cc(S(=O)(=O)O)c3ccccc3c2O)ccc1/C=C/c1ccc(/N=N/c2cc(S(=O)(=O)O)c3ccccc3c2O)cc1S(=O)(=O)O` [NSC34931] the “activity with Mg2+ or Mn2+ as metal cofactor” value ([1]; data not shown) was “equally active”, the IC50 ([1]; gel-based assay, coupled ST, at least three independent experiments, read-out: In Vitro IC50 +/−SD, ST) was 180 ± 70 nM and the IC50 ([1]; precleaved substrate (bypassing the 3'-P step), data not shown, read-out: IC50, ST inhibition with precleaved substrate) was 230 nM. The IC50 [2] was 240 nM, the “fold lower concentration for IN-DNA binding inhibition than for inhibition of 3'-P and ST” value [3] was “about 10” and the “concentration giving full inhibition of IN-DNA binding” value ([3]; fluorescence anisotropy) was 51 nM. For the same compound, the “effect on IN substrate (DNA) binding” value ([3]; fluorescence anisotropy over 30 min) was “strongly and durably prevented IN-DNA binding” and the “antiviral activity in HIV-1 cytopathic assay” value [4] was “antiviral”.
